In series [1] the test system is Aβ42. Briefly: In vivo mouse Aβ42 lowering (brain Aβ42 ELISA). The note with it: oral dose 30 mg/kg, 4 hr time point. An excerpt:
To determine whether acute administration of an Aβ42 lowering agent would reduce Aβ42 levels in vivo, non-transgenic rodents, e.g. mice or rats were used. Alternatively, two to three month old Tg2576 mice expressing APP695 containing the “Swedish” variant can be used or a transgenic mouse model developed by Dr. Fred Van Leuven (K. U. Leuven, Belgium) and co-workers, with neuron-specific expression of a clinical mutant of the human amyloid precursor protein [V717I] (Moechars et al., 1999 J. Biol. Chem. 274, 6483). Young transgenic mice have high levels of Aβ in the brain but no detectable Aβ deposition. At approximately 6-8 months of age , the transgenic mice start to display spontaneous, progressive accumulation of β-amyloid (Aβ) in the brain, eventually resulting in amyloid plaques within the subiculum, hippocampus and cortex. Animals treated with the Aβ42 lowering agent will be examined and compared to those untreated or treated with vehicle and brain levels of soluble Aβ42 and total Aβ would be quantitated by standard techniques, for example, using ELISA. Treatment periods may vary from hours to days and will be adjusted based on the results of the Aβ42 lowering once a time course of onset of effect can be established.
(§1) A typical protocol for measuring Aβ42 lowering in vivo is shown but it is only one of many variations that could be used to optimize the levels of detectable Aβ. For example, Aβ42 lowering compounds as free acids or sodium salts were formulated in 5% of solutol in water or 20% hydroxypropyl β cyclodextrin. The Aβ42 lowering agents are administered as a single oral dose or by any acceptable route of administration e.g., three to four hours before sacrifice, determined empirically, and analysis or alternatively could be given over a course of days and the animals sacrificed three to four hours after the final dose is given.
(§2) The mice are anaesthetized with a mixture of Ketalar (Ketamin), Rompun (Xylazin 2%) and Atropin (2:1:1) and flushed trans-cardially with physiological serum at 4° C. Blood is collected at sacrifice. The blood collection is performed via a heart puncture during anesthesia in EDTA treated collection tubes. Blood is centrifuged at 4000 g for 5 minutes at 4° C. and the plasma recovered and flash frozen for later analysis. The brain is removed from the cranium and hindbrain and forebrain are separated with a cut in the coronal/frontal plane. The cerebellum is removed and retained for quantitative analysis of test compound levels. The forebrain is divided evenly into left and right hemisphere by using a midline sagital cut.
Both hemispheres are immediately immersed in liquid nitrogen and stored at −70° C. until homogenization for biochemical assays. […]
A general note: ELISA stands for enzyme-linked immunosorbent assay.

Series [2] has as its target T1, γ-secretase (Homo sapiens, UniProt P49768).
T1 construct: endogenous in cells; host or cells: SKNBE2 cells carrying APP 695 wild type
Briefly: WTAPP cell assay Aβ42 (γ-secretase-modulating activity, SKNBE2 cells carrying APP 695 wild type). The format is cell-based. The note with it: for EC50: SKNBE2 cells carrying APP 695 wild type. Here is the method:
Screening of the Compounds of the Invention for γ-Secretase-Modulating Activity
Screening was carried out using SKNBE2 cells carrying the APP 695-wild type, grown in DMEM/NUT-mix F12 (HAM) provided by Gibco (cat no. 31330-38) containing 5% Serum/Fe supplemented with 1% non-essential amino acids.
Cells were grown to near confluency.
The screening was performed using the assay as described in Citron et al (1997) Nature Medicine 3: 67.

Series [3] can be described thus: Brain and plasma compound concentration in mouse after oral dose. It counts as in vivo. The note with it: 30 mg/kg, 30 mpk po. Here is the method: as §1, §2
Oral dose 30 mg/kg at 4 hr Time Point

For series [4], the target named is T2, Cyclooxygenase-2 (Cox-2) (Ovis aries, UniProt P79208).
T2 construct: purchased Cayman Chemical Company 760111
T2 sequence (P79208 17-603): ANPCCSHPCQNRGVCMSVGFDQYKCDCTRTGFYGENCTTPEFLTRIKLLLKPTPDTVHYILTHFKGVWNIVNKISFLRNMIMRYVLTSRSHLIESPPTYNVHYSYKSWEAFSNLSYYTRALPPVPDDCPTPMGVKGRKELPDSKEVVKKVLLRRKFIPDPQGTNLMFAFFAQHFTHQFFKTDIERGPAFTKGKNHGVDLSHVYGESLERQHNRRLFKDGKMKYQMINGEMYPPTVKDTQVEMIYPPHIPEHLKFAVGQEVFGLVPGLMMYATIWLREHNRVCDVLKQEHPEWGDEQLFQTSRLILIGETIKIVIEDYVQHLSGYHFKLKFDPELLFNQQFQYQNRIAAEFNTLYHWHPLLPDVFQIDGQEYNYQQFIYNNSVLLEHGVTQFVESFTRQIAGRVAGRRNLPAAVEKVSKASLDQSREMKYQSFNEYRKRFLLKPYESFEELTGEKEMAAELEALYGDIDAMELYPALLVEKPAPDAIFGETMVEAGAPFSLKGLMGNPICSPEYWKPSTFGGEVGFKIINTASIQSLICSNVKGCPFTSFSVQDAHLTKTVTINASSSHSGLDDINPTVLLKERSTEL
Briefly: Colorimetric Cox inhibitor screening assay (Cayman), Cox-2. The format is biochemical. How it is done:
(§3) Determination of the Effect of the Compounds According to the Invention on Cyclooxygenase-1 and Cyclooxygenase-2 (Cox-1, Cox-2)
(§4) Inhibition of Cox-1 and Cox-2 was determined using the Colorimetric Cox inhibitor screening assay provided by Cayman Chemical Company, Ann Arbor, Mich., USA. (Cat. No. 760111) according to manufacturer's instructions.

Series [5] addresses T3, Cyclooxygenase-1 (Cox-1) (Ovis aries, UniProt P05979).
T3 construct: purchased Cayman Chemical Company 760111
T3 sequence (P05979 25-600): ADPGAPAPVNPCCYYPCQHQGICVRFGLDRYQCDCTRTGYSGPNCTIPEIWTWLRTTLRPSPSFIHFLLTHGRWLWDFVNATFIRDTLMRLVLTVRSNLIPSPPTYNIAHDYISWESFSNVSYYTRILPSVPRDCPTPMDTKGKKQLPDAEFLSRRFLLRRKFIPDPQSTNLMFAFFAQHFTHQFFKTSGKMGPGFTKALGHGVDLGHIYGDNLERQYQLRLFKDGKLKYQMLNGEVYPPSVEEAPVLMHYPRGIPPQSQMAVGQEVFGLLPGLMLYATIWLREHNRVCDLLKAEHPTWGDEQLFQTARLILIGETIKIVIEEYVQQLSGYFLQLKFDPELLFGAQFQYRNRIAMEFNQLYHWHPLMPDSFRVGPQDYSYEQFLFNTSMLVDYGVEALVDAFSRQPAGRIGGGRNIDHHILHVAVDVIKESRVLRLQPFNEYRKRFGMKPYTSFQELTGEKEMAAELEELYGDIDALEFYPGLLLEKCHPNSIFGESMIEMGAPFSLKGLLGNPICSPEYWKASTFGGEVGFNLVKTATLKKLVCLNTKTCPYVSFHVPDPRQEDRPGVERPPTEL
The series can be described thus: Colorimetric Cox inhibitor screening assay (Cayman), Cox-1. The format is biochemical. How it is done: as §3, §4

[6] abbreviates: brain, read-out: Brain concentration @ 30 mpk po (4 hr).
Where [7] appears, read: plasma, read-out: Plasma concentration @ 30 mpk po (4 hr).

The structures appear in SMILES notation. Like-named read-outs stand apart in the source and are kept apart here.

Consider `CC(C)CC(C(=O)O)c1cc(OCc2cc(F)cc(F)c2)cc(-c2ccc(Cl)c(C(F)(F)F)c2)c1` (stereo not shown) [Compound 4, 2-[4′-Chloro-5-(3,5-difluoro-2-benzyloxy)-3′-trifluoromethyl-biphenyl-3-yl]-4-methyl-pentanoic acid], for which, in series [1], the “In vivo mouse Aβ42 efficacy @ 30 mpk (4 hr) inhibition” value came out at 42%. This compound yielded an EC50 in series [2] of 190 nM. The concentration at 4 h in series [3] (setting [6]) was determined as 6.5 ± 1.5 µM; in series [3] (setting [7]), 6.5 ± 6.3 µM.
On the same counts, the results for `CC(C)C[C@@H](C(=O)O)c1cc(OCc2ccc(F)cc2C(F)(F)F)cc(-c2ccc(C(F)(F)F)cc2)c1` [Compound 3, (R)-2-[5-(4-fluoro-2-trifluoromethyl-benzyloxy)-4′-trifluoromethyl-biphenyl-3-yl]-4-methyl-pentanoic acid] are 25%, 316 nM, 5.1 ± 1.1 µM and 5.1 ± 2.8 µM.
On the same counts, the results for `CC(C)C[C@H](C(=O)O)c1cc(OCc2cc(F)cc(F)c2)cc(-c2ccc(C(F)(F)F)cc2)c1` [Compound 2, (S)-2-[5-(3,5-Difluoro-benzyloxy)-4′-trifluoromethyl-biphenyl-3-yl]-4-methyl-pentanoic acid] are 45%, 1120 nM, 11.1 ± 2.8 µM and 11.1 ± 8.9 µM.
As for `CCC[C@H](C(=O)O)c1cc(OCc2ccccc2)cc(-c2ccc(C(F)(F)F)cc2)c1` [reference compound], in series [2] (comparison compound, read-out: IC50 in the above WTAPP cell assay), the IC50 came to 2500 nM.
As for `CC(C)C[C@@H](C(=O)O)c1cc(OCc2cc(F)cc(F)c2)cc(-c2ccc(C(F)(F)F)cc2)c1` [Compound 1, (R) 2-[5-(3,5-Difluoro-benzyloxy)-4′-trifluoromethyl-biphenyl-3-yl]-4-methyl-pentanoic acid], the “In vivo mouse Aβ42 efficacy @ 30 mpk (4 hr) inhibition” value in series [1] is given as 50%. Moreover, the midpoint of the response in series [2], the EC50, lay at 525 nM. The inhibition at 100 µM in series [4] and in series [5] was < 50% in each case. Further, the concentration at 4 h was 6.9 ± 2.3 µM in series [3] (setting [6]) and 6.9 ± 12.2 µM in series [3] (setting [7]).

One may read the EC50 as the concentration that produces a half-maximal response. High values mean a less potent agent, low ones a more potent agent. As usually defined, the IC50 is the concentration that inhibits the measured activity by half. Usually inhibition stands for the drop in the measured response relative to a control, in per cent.

The values above are taken from patent US7897643B2, “Biphenyl carboxylic acids and derivatives thereof” (Janssen Pharmaceutica N.V., priority 2007, dated 2011).
